Results on 1 compound are retold here after PMC10113214 (Scientific Reports, 2023).

The subject of data set [1] is full-thickness excisional dorsal skin wounds. Nature of the data set: Skin wound healing model in mice. The class given is in vivo, BALB/c mice. The method, then: Eight to ten-week-old BALB/c female mice were used for these experiments. All experimental procedures were approved by the Local Ethics Committee for Animal Experimentation in Bydgoszcz, Poland (Approval No. 49/2016). The study was conducted in compliance with the ARRIVE gudidelines. All animal handling methods were carried out in accordance with European Union Commission Recommendation of 18 June 2007 on guidelines for the accommodation and care of animals used for experimental and other scientific purposes. Before experiments, mice were randomized and divided into groups comprising six individuals. The mice were anaesthetized with inhaled 2–5% isoflurane. The skin on the dorsum was shaved and disinfected. After the skin was folded and raised cranially and caudally along the spine, the mouse was placed in a lateral position, and the folded skin was pierced with a 6.0 mm biopsy punch to make two through-and-through symmetrical wounds. Next, 10 µL of peptide hybrid hydrogel was applied onto each wound. Every gel was prepared in sterile conditions in biological safety cabinet, using sterile water to final concentration of 10 mg/ml (1%). Then the gels were incubated for 24 h allowing it to assemble. Control mice were treated with RADA16-I. The wounds were covered with a transparent Tegaderm TM dressing to protect the wound from outer environment of the cage and other animals. It was fastened with an adhesive plaster wrapped around the animal’s torso. The peptide hybrids were applied daily to the wounds for five consecutive days. The dressings were replaced daily in the first five days of the experiment and every second day until the end of the second week of the experiment. To measure the wound areas the wounds were photographed with a ruler placed next to the injury site. Wound areas were calculated using the computer-assisted image analysis program ImageJ[51].

Data set [2] concerns the target T1, Human neutrophil elastase (Homo sapiens, UniProt P08246).
T1 construct: purchased Sigma-Aldrich
T1 sequence (P08246 30-267): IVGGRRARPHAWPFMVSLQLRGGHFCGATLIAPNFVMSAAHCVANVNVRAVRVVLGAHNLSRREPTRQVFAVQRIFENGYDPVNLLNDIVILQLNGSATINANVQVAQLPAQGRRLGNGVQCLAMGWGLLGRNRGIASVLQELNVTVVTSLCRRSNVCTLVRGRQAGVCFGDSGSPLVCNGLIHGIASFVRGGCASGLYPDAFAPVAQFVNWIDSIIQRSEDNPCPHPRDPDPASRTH
Kind of data set: Elastase enzymatic cleavage. The class given is in vitro ADME. The following applies: human neutrophil elastase 150 nM, peptide 1 mM, 30 min, 37 °C; for identified fragments of peptides after elastase digestion (most abundant MS signals): 300 rpm, 0.1 M Tris HCl, 500 mM NaCl, 0.05% Triton X-100, 20 mM CaCl2 pH 7.5, HPLC and MALDI or LC-MS. Here is the method: Human neutrophil elastase (EC No. 3.4.21.37, Sigma-Aldrich) was used to study peptide susceptibility to that enzyme. Peptides were dissolved in 0.1 M Tris HCl, 500 mM NaCl, 0.05% Triton X-100, 20 mM CaCl2 pH 7.5 buffer mixture. Peptides (final concentration 1 mM) were mixed with the enzyme (final concentration 150 nM) and incubated for 30 min. in a thermoshaker (37 °C, 300 rpm). The reaction was stopped by a 10% aqueous solution of TFA. The results were analyzed using HPLC and MALDI or LC–MS. Details of this experiment are described in the Supplementary Data.

A short description of another data set: Rheology of hydrogels. The following applies: 1% hydrogel, 37 °C. The data set is classed as physicochemical. Here is the method: Rheological parameters of the hydrogels were identified using an MCR 302 rheometer (Anton Paar GmbH, Graz, Austria). The rheometer was equipped with a CP50-1 stainless steel cone-and-plate system of 50 mm diameter, 1° cone angle and 50 µm cone truncation and a Peltier controlled temperature unit. An aliquot of 900 µL of 1% hydrogel was applied to a plate cone. The linear viscoelastic (LVE) region was determined through an amplitude sweeps: shear strain (0.01–100% at 6 rad s^−1) and shear stress (0.001–10 Pa at 6.28 rad s^−1). Frequency sweep were measured from 0.01 to 100 rad s^−1 at 2.5% strain. The frequency dependence of the storage modulus (G’) and loss modulus (G”) of the hydrogels were measured at 37 °C. All experiments were carried out in triplicate and reported as the mean of three repeats.

The next data set deals with 46BR.1N fibroblasts. Nature of the data set: LDH cytotoxicity assay, 46BR.1N. The following applies: 150 µg/ml, 48 h, 3 independent experiments, n = 12. The data set is classed as cell-based, human. The method, then: Human HaCaT keratinocytes (DKFZ, Heidelberg, Germany)[47],[48], the human dermal fibroblast 46BR.1N cell line (ECACC, Sigma Aldrich Co.) and human primary dermal fibroblasts used in this study were routinely cultured in culture flasks (growth surface area: 25 cm^2) in DMEM-HG medium supplemented with 10% fetal bovine serum, 100 U/mL penicillin and […] streptomycin under standard conditions.
Briefly, the HaCaT and 46BR.1N cells were seeded in 96-well plates at a density of 5000 per well. Cell stimulation with RADA derivatives was performed using a protocol described before[49],[50]. Both assays were performed according to the manufacturers’ instructions (XTT- Roche, Cat. No. 11465015001; LDH- Takara, Cat. No. MK401).

A short description of data set [3]: Circular dichroism, conformation and thermal stability of β-sheet. The class given is physicochemical. Here is the method: The molar ellipticity of peptides were registered on a Jasco J-815 spectrometer (JASCO, Easton, MD, USA). Solutions of peptide hybrids were prepared in water solution (10 mg/ml), incubated at 37 °C for 4 h and then diluted to a final concentration of 0.20 mg/ml. CD spectra measurements were performed at 25 °C, 30 °C, 35 °C, 40 °C, 45 °C, 50 °C, 55 °C and 60 °C, at 190–260 nm wavelength and at a scan speed of […]. The background of the solvent was subtracted. The results are presented as the relationship of mean residue molar ellipticity (MRME) [deg × cm^2 × dmol^−1] to wavelength [nm]. Measurements were performed in triplicate. In order to determine the peptides’ denaturation temperatures, the molar ellipticity rotatory angle at a fixed wavelength of 196 nm, [θ]196, was measured as a function of temperature (max 100 °C). CD temperature measurements were carried out up to a temperature of 100 °C. Above this temperature, the cure was extrapolated with GraphPad Prism 8 software using the 4PL curve fit function. The denaturation temperature was determined as the temperature at which the change in ellipticity (θ) was half complete.

Data set [4] can be described thus: Transmission electron microscopy of nanofibres. The class given is physicochemical. The following applies: 1% gel in PBS diluted to 0.001%, uranyl acetate stain. The method, then: 1% gel solutions were prepared and incubated in PBS. The samples were then diluted to 0.001% concentration. A drop of solution was applied to a microcellulose membrane and stained with a 1.5% solution of uranyl acetate. The images were registered on a Tecnai Spirit BioTwin FEI Transmission Electron Microscope operating at 120 kV.

Turning to `CC(=O)N[C@@H](CCCNC(=N)N)C(=O)N[C@@H](C)C(=O)N[C@@H](CC(=O)O)C(=O)N[C@@H](C)C(=O)N[C@@H](CCCNC(=N)N)C(=O)N[C@@H](C)C(=O)N[C@@H](CC(=O)O)C(=O)N[C@@H](C)C(=O)N[C@@H](CCCNC(=N)N)C(=O)N[C@@H](C)C(=O)N[C@@H](CC(=O)O)C(=O)N[C@@H](C)C(=O)N[C@@H](CCCNC(=N)N)C(=O)N[C@@H](C)C(=O)N[C@@H](CC(=O)O)C(=O)N[C@@H](C)C(=O)NCC(=O)NCC(=O)NCC(=O)N[C@@H](C)C(=O)N[C@@H](C)C(=O)N1CCC[C@H]1C(=O)N[C@H](C(=O)NCC(=O)NCC(=O)NCC(=O)N[C@@H](Cc1c[nH]cn1)C(=O)N[C@@H](CCCCN)C(N)=O)C(C)C` [RADA-GHK, Ac-(Arg-Ala-Asp-Ala)4-Gly-Gly-Gly-Ala-Ala-Pro-Val-Gly-Gly-Gly-His-Lys-NH2], in data set [1] (BALB/c female mice, 6.0 mm punch dorsal wounds, 10 µL 1% hydrogel topically daily for five days, n = 6, SD), the “wound closure on day 7” value was determined as 41.8 ± 16.1%. Besides, the “wound healing compared to RADA16-I” value in data set [1] (BALB/c mice, 1% hydrogel topically, day 2 up to day 14) is “Accelerated wound healing”. The “identified fragments of peptides after elastase digestion (most abundant MS signals)” value is recorded as “Ac-(RADA)4-GGG-AAPV-COOH” in data set [2] (fragment Ac-(RADA)4-GGG-AAPV-COOH) and “NH2 -GHK-NH2” in data set [2] (fragment NH2 -GHK-NH2). The “main / predominant fragments of elastase digestion” value in data set [2] (pH 7.5 buffer, HPLC, mass spectrometry) was “Gly^26His^27Lys^28”. Further, the “storage modulus G’” value in the data set “Rheology of hydrogels” (cone-plate, frequency sweep 0.01–100 rad s−1 at 2.5% strain (Fig. 9 legend: 1%), mean of three repeats) was 550 Pa. Besides, the “shear strain above which the gel behaves like a liquid (G” > G’)” value in the data set “Rheology of hydrogels” (strain sweep, ω = 6.28 rad/s) is “above 30%”. In addition, the “cytotoxicity (LDH), slight effect” value in the data set with 46BR.1N fibroblasts is on record as “ca. 15%”. The “heat stability of β-sheet structure (rank)” value in data set [3] (CD scans at different temperatures) is listed as “highest”. Moreover, the “temperature of first disruption of the β-sheets” value in data set [3] (CD, [θ]196 nm as function of temperature 4–100 °C, gel 10 mg/ml in water, 37 °C 4 h, diluted to 0.20 mg/ml, decrease of molar ellipticity) is about 65 °C. Also, the “transition temperature (half β-conformation, half disordered)” value in data set [3] (CD, [θ]196 nm vs temperature, 0.20 mg/ml in water, above 100 °C curve extrapolated, 4PL fit) is 94 °C. Besides, the “fibre thickness (TEM)” value in data set [4] is recorded as “about 3 nm”.
